One may read the inhibition as the relative decrease from the control value, in per cent.

Each structure is given as a SMILES string.

In one assay the target is T1, human B1R (Homo sapiens, UniProt P46663).
T1 construct: expressed in transfected cells; host or cells: CHO K1 cells (Chinese hamster ovary), stably transfected
T1 sequence (P46663 1-353): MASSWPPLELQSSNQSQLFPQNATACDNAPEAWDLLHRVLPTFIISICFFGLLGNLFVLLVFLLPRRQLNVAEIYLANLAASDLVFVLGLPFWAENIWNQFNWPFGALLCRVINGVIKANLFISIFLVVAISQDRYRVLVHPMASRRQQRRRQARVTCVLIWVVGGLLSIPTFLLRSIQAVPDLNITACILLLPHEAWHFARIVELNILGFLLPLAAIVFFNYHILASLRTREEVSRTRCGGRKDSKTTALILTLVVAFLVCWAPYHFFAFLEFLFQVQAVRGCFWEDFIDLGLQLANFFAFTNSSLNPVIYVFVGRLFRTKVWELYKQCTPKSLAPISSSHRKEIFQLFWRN
As to the kind of experiment: FLIPR Ca2+ functional assay, B1R antagonism, human B1R in CHO K1 cells. Type of assay: cell-based. The conditions noted are these: test substance 10 μM; hB1R CHO K1 cells; agonist Lys-Des-Arg9 bradykinin at EC80; % of maximum achievable inhibition. How it is done: The agonistic or antagonistic action of substances on the bradykinin 1 receptor (B1R) of the human and rat species can be quantified with ectopically expressing cell lines (CHO K1 cells) and with the aid of a Ca^2+-sensitive dye (Fluo-4) using a fluorescent imaging plate reader (FLIPR). The value in % activation is based on the Ca^2+ signal after addition of Lys-Des-Arg^9 bradykinin (0.5 nM) or Des-Arg^9 bradykinin (100 nM). Antagonists lead to a suppression of the Ca^2+ influx following administration of the agonist. The % inhibition in comparison with the maximum achievable inhibition is indicated.
1. Functional Investigation on the Bradykinin 1 Receptor (B1R) The agonistic or antagonistic action of substances can be determined on the bradykinin 1 receptor (B1R) of the human and rat species with the following assay. According to this assay, the Ca^2+ inflow through the channel is quantified with the aid of a Ca^2+-sensitive dye (Fluo-4 type, Molecular Probes Europe BV, Leiden, Netherlands) in a fluorescent imaging plate reader (FLIPR, Molecular Devices, Sunnyvale, USA). 2. Method: Chinese hamster ovary cells (CHO K1 cells) which are stably transfected with the human B1R gene (hB1R cells) or the B1R gene of the rat (rB1R cells) are used. For functional investigations these cells are plated-out onto black 96-well plates with a clear base (BD Biosciences, Heidelberg, Germany or Greiner, Frickenhausen, Germany) in a density of 20,000-35,000 cells/well. Overnight the cells are incubated at 37° C. and 5% CO2 in culture medium (hB1R cells: Ham's Nutrient Mixture F12, Gibco Invitrogen GmbH, Karlsruhe, Germany or DMEM, Sigma-Aldrich, Taufkirchen, Germany; rB1R cells: D-MEM/F12, Gibco Invitrogen, Karlsruhe, Germany) with 10 vol. % FBS (foetal bovine serum, Gibco Invitrogen GmbH, Karlsruhe, Germany or PAN Biotech GmbH, Aidenbach, Germany).
On the following day the cells are loaded with 2.13 μM Fluo-4 (Molecular Probes Europe BV, Leiden, Netherlands) in HBSS buffer (Hank's buffered saline solution, Gibco Invitrogen GmbH, Karlsruhe, Germany) with 2.5 mM probenecid (Sigma-Aldrich, Taufkirchen, Germany) and 10 mM HEPES (Sigma-Aldrich, Taufkirchen, Germany) for 60 min at 37° C. The plates are subsequently washed twice with HBSS buffer, and HBSS buffer which additionally contains 0.1% BSA (bovine serum albumin; Sigma-Aldrich, Taufkirchen, Germany), 5.6 mM glucose and 0.05% gelatine (Merck KGaA, Darmstadt, Germany) is added. After a further incubation of 20 minutes at RT, the plates are inserted into the FLIPR for Ca^2+ measurement. Alternatively they are washed with buffer A (15 mM HEPES, 80 mM NaCl, 5 mM KCl, 1.2 mM CaCl2, 0.7 mM MgSO4, 2 g/l glucose, 2.5 mM probenecid) and loaded with buffer A with added 2.5 μM Fluo-4 and 0.025% Pluronic F127 (Sigma-Aldrich, Taufkirchen, Germany). The cells are then washed twice with buffer A and incubated for 30 minutes with buffer A, which additionally contains 0.05% BSA and 0.05% gelatine, at RT and then used for Ca^2+ measurement in the FLIPR. The Ca^2+-dependent fluorescence is measured here before and after addition of substances (λex=488 nm, λem=540 nm). The quantification is performed by measuring the highest fluorescence intensity (FC, fluorescence counts) over time.
The FLIPR protocol comprises two additions of substance. Test substances (10 μM) are first pipetted onto the cells and the Ca^2+ inflow is compared with the control (hB1R: Lys-Des-Arg^9 bradykinin >=50 nM; rB1R: Des-Arg^9 bradykinin 10 μM). The value in % activation based on the Ca^2+ signal after addition of Lys-Des-Arg^9 bradykinin (>=50 nM) or Des-Arg^9 bradykinin (10 μM) is obtained therefrom. After incubation for 10-20 minutes, Lys-Des-Arg^9 bradykinin (hB1R) or Des-Arg^9 bradykinin (rB1R) is applied in the EC80 concentration and the inflow of Ca^2+ is likewise determined.
Antagonists lead to a suppression of the Ca^2+ inflow. The % inhibition in comparison with the maximum achievable inhibition is calculated. […]

A further assay deals with T2, B1R of the rat (Rattus norvegicus, UniProt P97583).
T2 construct: expressed in transfected cells; host or cells: CHO K1 cells (Chinese hamster ovary), stably transfected
T2 sequence (P97583 1-337): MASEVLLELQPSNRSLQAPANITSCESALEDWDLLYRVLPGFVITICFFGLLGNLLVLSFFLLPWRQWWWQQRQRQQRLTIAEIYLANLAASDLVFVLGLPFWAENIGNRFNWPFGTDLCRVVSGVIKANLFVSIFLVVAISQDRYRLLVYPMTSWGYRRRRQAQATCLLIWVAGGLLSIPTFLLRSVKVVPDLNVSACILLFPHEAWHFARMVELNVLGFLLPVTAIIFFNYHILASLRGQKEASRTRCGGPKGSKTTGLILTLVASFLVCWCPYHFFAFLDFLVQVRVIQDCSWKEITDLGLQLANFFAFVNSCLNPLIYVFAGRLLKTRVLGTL
As to the kind of experiment: FLIPR Ca2+ functional assay, B1R antagonism, rat B1R in CHO K1 cells. Type of assay: cell-based. Particulars: test substance 10 μM; rB1R CHO K1 cells; agonist Des-Arg9 bradykinin at EC80; % of maximum achievable inhibition. Put shortly: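 IC50 values come from varied compound concentrations applied 10-20 min before an EC80 agonist challenge, with Des-Arg9 bradykinin for rat and Lys-Des-Arg9 bradykinin for human receptor. Ca2+ influx in Fluo-4-loaded CHO K1 transfectants was measured by FLIPR peak fluorescence. Data are % inhibition vs maximum, n=2-3, N>=2.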

As to `COc1cc(C)c(S(=O)(=O)N2CCn3cccc3C2COCC(=O)N2CCN(C3CCN(C)CC3)CC2)c(C)c1` (centres unmarked) [Example 2, 2-((2-(4-Methoxy-2,6-dimethylphenylsulfonyl)-1,2,3,4-tetrahydropyrrolo[1,2-a]pyrazin-1-yl)methoxy)-1-(4-(1-methylpiperidin-4-yl)piperazin-1-yl)ethanone], the figures for the inhibition at 10 µM on human B1R and on B1R of the rat were 99.9% and 98.9%, respectively.
In the same order, the values of `COc1cc(C)c(S(=O)(=O)N2CCn3cccc3C2CC(=O)N2CCC3(CCN(C4CC4)C3)C2)c(C)c1` (centres unmarked) [Example 3, 1-(7-Cyclopropyl-2,7-diazaspiro[4.4]nonan-2-yl)-2-(2-(4-methoxy-2,6-dimethylphenylsulfonyl)-1,2,3,4-tetrahydropyrrolo[1,2-a]pyrazin-1-yl)ethanone] are 69.6% and 58.8%.
In the same order, the values of `COc1cc(C)c(S(=O)(=O)N2CCn3cccc3C2COCC(=O)N2CCC3(CC2)CCN(c2ccncc2)C3)c(C)c1` (centres unmarked) [Example 4, 2-((2-(4-Methoxy-2,6-dimethylphenylsulfonyl)-1,2,3,4-tetrahydropyrrolo[1,2-a]pyrazin-1-yl)methoxy)-1-(2-(pyridin-4-yl)-2,8-diazaspiro[4.5]decan-8-yl)ethanone] are 99.8% and 104%.
In the same order, the values of `O=C(COCC1c2cccn2CCN1S(=O)(=O)c1ccccc1C(F)(F)F)N1CCC(Oc2ccncc2)CC1` (centres unmarked) [Example 5, 1-(4-(Pyridin-4-yloxy)piperidin-1-yl)-2-((2-(2-(trifluoromethyl)phenylsulfonyl)-1,2,3,4-tetrahydropyrrolo[1,2-a]pyrazin-1-yl)methoxy)ethanone] are 99.8% and 102%.
As for `Cc1cccc(Cl)c1S(=O)(=O)N1CCn2cccc2C1COCC(=O)N1CCC(Oc2ccncc2)CC1` (centres unmarked) [Example 6, 2-((2-(2-Chloro-6-methylphenylsulfonyl)-1,2,3,4-tetrahydropyrrolo[1,2-a]pyrazin-1-yl)methoxy)-1-(4-(pyridin-4-yloxy)piperidin-1-yl)ethanone], the inhibition at 10 µM was found to be 99.6% at human B1R and 100% at B1R of the rat.
Taken in the same sequence, the figures for `COc1cc(C)c(S(=O)(=O)N2CCn3cccc3C2COCC(=O)N(C)CCC2CCN(c3ccncc3)CC2)c(C)c1` (centres unmarked) [Example 7] were 99.9% and 102%.
Taken in the same sequence, the figures for `COc1ccc2cc(S(=O)(=O)N3CCn4cccc4C3CC(=O)NC3CCc4cc(CN5CCCCC5)ccc4C3)ccc2c1` (centres unmarked) [Example 8, 2-(2-(6-Methoxynaphthalen-2-ylsulfonyl)-1,2,3,4-tetrahydropyrrolo[1,2-a]pyrazin-1-yl)-N-(6-(piperidin-1-ylmethyl)-1,2,3,4-tetrahydronaphthalen-2-yl)acetamide] were 99.9% and 104%.
For `COc1ccc2cc(S(=O)(=O)N3CCn4cccc4C3CC(=O)N[C@@H]3CCCc4cc(CN5CCCCC5)ccc43)ccc2c1` (stereo partly drawn) [Example 9, 2-(2-(6-Methoxynaphthalen-2-ylsulfonyl)-1,2,3,4-tetrahydropyrrolo[1,2-a]pyrazin-1-yl)-N—((R)-6-(piperidin-1-ylmethyl)-1,2,3,4-tetrahydronaphthalen-1-yl)acetamide], the inhibition at 10 µM on human B1R came out at 99.5%; at B1R of the rat it was 103%.
In the same order, the values of `COc1cc(C)c(S(=O)(=O)N2CCn3cccc3C2COCC(=O)N2CCC3(CC2)CCN(c2ccncc2)CC3)c(C)c1` (centres unmarked) [Example 10, 2-((2-(4-Methoxy-2,6-dimethylphenylsulfonyl)-1,2,3,4-tetrahydropyrrolo[1,2-a]pyrazin-1-yl)methoxy)-1-(9-(pyridin-4-yl)-3,9-diazaspiro[5.5]undecan-3-yl)ethanone] are 99.8% and 103%.
Taken in the same sequence, the figures for `O=C(COCC1c2cccn2CCN1S(=O)(=O)c1ccccc1C(F)(F)F)N1CCC2(CC1)CCN(c1ccncc1)CC2` (centres unmarked) [Example 11, 1-(9-(Pyridin-4-yl)-3,9-diazaspiro[5.5]undecan-3-yl)-2-((2-(2-(trifluoromethyl)phenylsulfonyl)-1,2,3,4-tetrahydropyrrolo[1,2-a]pyrazin-1-yl)methoxy)ethanone] were 99.9% and 98.1%.
For the molecule `CN(CCC1CCN(c2ccncc2)CC1)C(=O)COCC1c2cccn2CCN1S(=O)(=O)c1ccccc1C(F)(F)F` (centres unmarked) [Example 12, N-Methyl-N-(2-(1-(pyridin-4-yl)piperidin-4-yl)ethyl)-2-((2-(2-(trifluoromethyl)phenylsulfonyl)-1,2,3,4-tetrahydropyrrolo[1,2-a]pyrazin-1-yl)methoxy)acetamide], the results for the inhibition at 10 µM on human B1R and on B1R of the rat were 99.5% and 99.3%, respectively.
In the same order, the values of `COc1cc(C)c(S(=O)(=O)N2CCn3cccc3C2COCC(=O)N2CCC(Oc3ccncc3)CC2)c(C)c1` (centres unmarked) [Example 13, 2-((2-(4-Methoxy-2,6-dimethylphenylsulfonyl)-1,2,3,4-tetrahydropyrrolo[1,2-a]pyrazin-1-yl)methoxy)-1-(4-(pyridin-4-yloxy)piperidin-1-yl)ethanone] are 100% and 100%.
Taken in the same sequence, the figures for `Cc1cccc(Cl)c1S(=O)(=O)N1CCn2cccc2C1COCC(=O)N1CCC2(CC1)CCN(c1ccncc1)CC2` (centres unmarked) [Example 15, 2-((2-(2-Chloro-6-methylphenylsulfonyl)-1,2,3,4-tetrahydropyrrolo[1,2-a]pyrazin-1-yl)methoxy)-1-(9-(pyridin-4-yl)-3,9-diazaspiro[5.5]undecan-3-yl)ethanone] were 99.9% and 98.3%.

(Values after patent US8158628B2, “Sulfonylated 1,2,3,4-tetrahydropyrrolo[1,2-a]pyrazine compounds and their use as pharmaceuticals” (Gruenenthal GmbH, priority 2009, dated 2012).)
